We go through 20 molecules from patent US20190367516A1 (Bayer Pharma Aktiengesellschaft, priority 2015, published 2019).

In test [1] the target is T1, human M2 receptor (Homo sapiens, UniProt P08172).
T1 sequence (P08172 1-466): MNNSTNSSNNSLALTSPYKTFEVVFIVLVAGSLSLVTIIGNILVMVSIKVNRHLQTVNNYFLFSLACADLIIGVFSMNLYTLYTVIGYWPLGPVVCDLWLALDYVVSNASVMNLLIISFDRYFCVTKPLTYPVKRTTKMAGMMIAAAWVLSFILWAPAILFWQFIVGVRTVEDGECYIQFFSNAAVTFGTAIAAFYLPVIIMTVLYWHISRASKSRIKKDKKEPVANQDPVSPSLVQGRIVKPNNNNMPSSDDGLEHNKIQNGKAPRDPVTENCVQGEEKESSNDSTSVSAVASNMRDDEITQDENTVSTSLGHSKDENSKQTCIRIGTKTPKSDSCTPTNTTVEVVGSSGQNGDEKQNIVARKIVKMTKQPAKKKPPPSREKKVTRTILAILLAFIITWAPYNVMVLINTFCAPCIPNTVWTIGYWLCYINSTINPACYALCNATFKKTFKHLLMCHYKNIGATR
Particulars: for EC50: acetylcholine at EC20, allosteric potency, in some cases mean values from two or more determinations; for Emax: read-out: Efficiency.

Test [2] has as its target T1, human M2 receptor. The class given is cell-based. The note with it: shift in the acetylcholine dose-response curve (Allosteric EC50 shift, GraphPad PRISM); α >1 = positive cooperativity.
Setting [3] is: Receptor activity EC50, M2-GIRK1/4 activation test.

Molecules are shown by their SMILES. Read-outs that look alike come from different tables or passages of the source.

Turning to `CC[C@@H](NC(=O)c1cn(-c2ccc(F)cc2F)c2nc(N3C[C@@H]4C(COC)[C@@H]4C3)ccc2c1=O)C(F)(F)F` (stereo partly drawn) [Example 190, 1-(2,4-Difluorophenyl)-7-[(1R,5S)-6-(methoxymethyl)-3-azabicyclo[3.1.0]hex-3-yl]-4-oxo-N-[(2R)-1,1,1-trifluorobutan-2-yl]-1,4-dihydro-1,8-naphthyridine-3-carboxamide], the response in test [1] (setting [3]) was half-maximal at 46 nM (EC50). The “Cooperativity (alpha factor)” value in test [2] came out at 12.
With `CC[C@@H](NC(=O)c1cn(-c2ccc(F)cc2F)c2nc(N3CCCC3)ccc2c1=O)C(F)(F)F` [Example 192, 1-(2,4-Difluorophenyl)-4-oxo-7-(pyrrolidin-1-yl)-N-[(2R)-1,1,1-trifluorobutan-2-yl]-1,4-dihydro-1,8-naphthyridine-3-carboxamide], the half-maximal effective concentration (EC50) (in general, the concentration giving half of the maximal effect) in test [1] (setting [3]) was determined as 54 nM. Also, in test [2], the “Cooperativity (alpha factor)” value was 9.
On to `CC[C@@H](NC(=O)c1cn(-c2ccc(F)cc2F)c2nc(N3C[C@@H](OC)CC3=O)ccc2c1=O)C(F)(F)F` [Example 193, 1-(2,4-Difluorophenyl)-7-[(4S)-4-methoxy-2-oxopyrrolidin-1-yl]-4-oxo-N-[(2R)-1,1,1-trifluorobutan-2-yl]-1,4-dihydro-1,8-naphthyridine-3-carboxamide], for which, in test [1] (setting [3]), a half-maximal response (EC50) required 36 nM. Also, the “Cooperativity (alpha factor)” value in test [2] is on record as 50.
`O=C(Nc1c(Cl)cccc1Cl)c1cn(-c2ccc(F)cc2F)c2nc(N3CC[C@H](O)C3=O)ccc2c1=O` [Example 202, N-(2,6-Dichlorophenyl)-1-(2,4-difluorophenyl)-7-[(3S)-3-hydroxy-2-oxopyrrolidin-1-yl]-4-oxo-1,4-dihydro-1,8-naphthyridine-3-carboxamide]: the concentration for a half-maximal effect (EC50) in test [1] (setting [3]) came to 89 nM. Moreover, the “Cooperativity (alpha factor)” value in test [2] is 18.
`CC[C@H](NC(=O)c1cn(-c2ccccc2F)c2nc(N(C)C)ccc2c1=O)C(F)(F)F` [Example 203, 7-(Dimethylamino)-1-(2-fluorophenyl)-4-oxo-N-[(2S)-1,1,1-trifluorobutan-2-yl]-1,4-dihydro-1,8-naphthyridine-3-carboxamide] had a concentration for a half-maximal effect (EC50) in test [1] (setting [3]) of 62 nM. Also, in test [2], the “Cooperativity (alpha factor)” value was found to be 8.
Molecule `CC[C@@H](NC(=O)c1cn(-c2ccc(F)cc2F)c2nc(N3CCC3=O)ccc2c1=O)C(F)(F)F` [Example 205, 1-(2,4-Difluorophenyl)-4-oxo-7-(2-oxoazetidin-1-yl)-N-[(2R)-1,1,1-trifluorobutan-2-yl]-1,4-dihydro-1,8-naphthyridine-3-carboxamide] registered an EC50 in test [1] (setting [3]) of 105 nM. Further, in test [2], the “Cooperativity (alpha factor)” value came to 4.
Consider `O=C(NC(c1ccccc1Cl)C(F)(F)F)c1cn(-c2ccc(F)cc2F)c2nc(N3CC[C@H](F)C3)ccc2c1=O` (stereo partly drawn) [Example 217, N-[1-(2-Chlorophenyl)-2,2,2-trifluoroethyl]-1-(2,4-difluorophenyl)-7-[(3S)-3-fluoropyrrolidin-1-yl]-4-oxo-1,4-dihydro-1,8-naphthyridine-3-carboxamide], for which the EC50 in test [1] (setting [3]) was determined as 36 nM. In test [2], the “Cooperativity (alpha factor)” value is 18.
In the case of `CCC(COC(F)(F)F)NC(=O)c1cn(-c2ccc(F)cc2F)c2nc(N3C[C@@H](O)CC3=O)ccc2c1=O` (stereo partly drawn) [Example 234, 1-(2,4-Difluorophenyl)-7-[(4S)-4-hydroxy-2-oxopyrrolidin-1-yl]-4-oxo-N-[1-(trifluoromethoxy)butan-2-yl]-1,4-dihydro-1,8-naphthyridine-3-carboxamide], the half-maximal effective concentration (EC50) in test [1] (setting [3]) was found to be 75 nM. The “Cooperativity (alpha factor)” value in test [2] turned out to be 28.
As to `CC[C@@H](NC(=O)c1cn(-c2ccccc2F)c2nc(N3C[C@@H](O)CC3=O)ccc2c1=O)C(F)(F)F` [Example 239, 1-(2-Fluorophenyl)-7-[(4S)-4-hydroxy-2-oxopyrrolidin-1-yl]-4-oxo-N-[(2R)-1,1,1-trifluorobutan-2-yl]-1,4-dihydro-1,8-naphthyridine-3-carboxamide], the half-maximal effective concentration (EC50) in test [1] (setting [3]) amounted to 112 nM. In test [1], the Emax was 99.3%. Further, the “Cooperativity (alpha factor)” value in test [2] was 30.
Regarding `CC[C@H](NC(=O)c1cn(-c2ccc(F)cc2F)c2nc(N3C[C@@H](C(=O)OC)OC3=O)ccc2c1=O)C(F)(F)F` [Example 258, Methyl (5S)-3-[8-(2,4-difluorophenyl)-5-oxo-6-{[(2S)-1,1,1-trifluorobutan-2-yl]carbamoyl}-5,8-dihydro-1,8-naphthyridin-2-yl]-2-oxo-1,3-oxazolidine-5-carboxylate], it took 147 nM to reach a half-maximal effect in test [1] (setting [3]) (EC50). Moreover, the “Cooperativity (alpha factor)” value in test [2] turned out to be 30.
Consider `CC[C@H](NC(=O)c1cn(-c2ccc(F)cc2F)c2nc(N3C[C@H](C(=O)OC)OC3=O)ccc2c1=O)C(F)(F)F` [Example 259, Methyl (5R)-3-[8-(2,4-difluorophenyl)-5-oxo-6-{[(2S)-1,1,1-trifluorobutan-2-yl]carbamoyl}-5,8-dihydro-1,8-naphthyridin-2-yl]-2-oxo-1,3-oxazolidine-5-carboxylate], for which the concentration giving a half-maximal response (EC50) in test [1] (setting [3]) was determined as 560 nM. Further, in test [2], the “Cooperativity (alpha factor)” value is recorded as 14.
Turning to `CC[C@@H](NC(=O)c1cn(-c2ccc(F)cc2F)c2nc(N3CC(O)C3)ccc2c1=O)C(F)(F)F` [Example 261, 1-(2,4-Difluorophenyl)-7-(3-hydroxyazetidin-1-yl)-4-oxo-N-[(2R)-1,1,1-trifluorobutan-2-yl]-1,4-dihydro-1,8-naphthyridine-3-carboxamide], the half-maximal effective concentration (EC50) in test [1] (setting [3]) was 75 nM. Moreover, the “Cooperativity (alpha factor)” value in test [2] is on record as 13.
Molecule `CC[C@@H](NC(=O)c1cn(-c2ccc(F)cc2F)c2nc(N3CC(O)(C(F)(F)F)C3)ccc2c1=O)C(F)(F)F` [Example 262, 1-(2,4-Difluorophenyl)-7-[3-hydroxy-3-(trifluoromethyl)azetidin-1-yl]-4-oxo-N-[(2R)-1,1,1-trifluorobutan-2-yl]-1,4-dihydro-1,8-naphthyridine-3-carboxamide] returned an EC50 in test [1] (setting [3]) of 72 nM. Also, the “Cooperativity (alpha factor)” value in test [2] came out at 27.
Consider `CC[C@@H](NC(=O)c1cn(-c2c(F)cc(F)cc2F)c2nc(N3CCC(O)C3=O)ccc2c1=O)C(F)(F)F` (stereo partly drawn) [Example 282, 7-[3-Hydroxy-2-oxopyrrolidin-1-yl-4-oxo-N-[(2R)-1,1,1-trifluorobutan-2-yl]-4-oxo-N-trifluorobutan-2-yl]-1-(2,4,6-trifluorophenyl)-1,4-dihydro-1,8-naphthyridine-3-carboxamide], for which, in test [1] (read-out: Receptor activity EC50, M2-GIRK1/4 activation test), the EC50 was determined as 21 nM. In test [2], the “Cooperativity (alpha factor)” value was determined as 32.
Take `CC[C@H](NC(=O)c1cn(-c2ccc(F)cc2F)c2nc(N3C[C@H](O)CC3=O)ccc2c1=O)C(F)(F)F` [Example 285, 1-(2,4-Difluorophenyl)-7-[(4R)-4-hydroxy-2-oxopyrrolidin-1-yl]-4-oxo-N-[(2S)-1,1,1-trifluorobutan-2-yl]-1,4-dihydro-1,8-naphthyridine-3-carboxamide]: the 50% effective concentration (EC50) in test [1] (setting [3]) turned out to be 598 nM. For the same molecule, the Emax in test [1] came to 79.9%. In test [2], the “Cooperativity (alpha factor)” value came out at 23.
The molecule `CC[C@H](NC(=O)c1cn(-c2ccc(F)cc2F)c2nc(N3CC=CC3=O)ccc2c1=O)C(F)(F)F` [Example 286, 1-(2,4-Difluorophenyl)-4-oxo-7-(2-oxo-2,5-dihydro-1H-pyrrol-1-yl)-N-[(2S)-1,1,1-trifluorobutan-2-yl]-1,4-dihydro-1,8-naphthyridine-3-carboxamide] showed a half-maximal effective concentration (EC50) in test [1] (setting [3]) of 94 nM. Further, the “Cooperativity (alpha factor)” value in test [2] is listed as 3.
On to `CC[C@@H](NC(=O)c1cn(-c2c(F)cccc2Cl)c2nc(N3C[C@@H](O)CC3=O)ccc2c1=O)C(F)(F)F` [Example 307, 1-(2-Chloro-6-fluorophenyl)-7-[(4S)-4-hydroxy-2-oxopyrrolidin-1-yl]-4-oxo-N-[(2R)-1,1,1-trifluorobutan-2-yl]-1,4-dihydro-1,8-naphthyridine-3-carboxamide], for which the midpoint of the response in test [1] (setting [3]), the EC50, lay at 14 nM. Besides, the “Cooperativity (alpha factor)” value in test [2] is reported as 36.
Consider `CC[C@@H](NC(=O)c1cn(-c2ccc(F)cc2F)c2nc(N3CCNC3=O)ccc2c1=O)C(F)(F)F` [Example 320, 1-(2,4-Difluorophenyl)-4-oxo-7-(2-oxoimidazolidin-1-yl)-N-[(2R)-1,1,1-trifluorobutan-2-yl]-1,4-dihydro-1,8-naphthyridine-3-carboxamide], for which, in test [1] (setting [3]), the half-maximal effective concentration (EC50) was 130 nM. Also, the “Cooperativity (alpha factor)” value in test [2] is recorded as 6.
Consider `C[C@H](NC(=O)c1cn(-c2c(F)cccc2F)c2nc(N3C[C@@H](O)CC3=O)ccc2c1=O)C(F)(F)F` [Example 329, 1-(2,6-Difluorophenyl)-7-[(4S)-4-hydroxy-2-oxopyrrolidin-1-yl]-4-oxo-N-[(2S)-1,1,1-trifluoropropan-2-yl]-1,4-dihydro-1,8-naphthyridine-3-carboxamide], for which a half-maximal response in test [1] (setting [3]) (EC50) required 76 nM. In addition, the “Cooperativity (alpha factor)” value in test [2] is given as 16.
As to `CC[C@H](NC(=O)c1cn(-c2c(F)cc(F)cc2F)c2nc(N3C[C@@](C)(O)C[C@H]3C)ccc2c1=O)C(F)(F)F` [Example 331, 7-[(2R,4S)-4-Hydroxy-2,4-dimethylpyrrolidin-1-yl]-4-oxo-N-[(2S)-1,1,1-trifluorobutan-2-yl]-1-(2,4,6-trifluorophenyl)-1,4-dihydro-1,8-naphthyridine-3-carboxamide], in test [1] (setting [3]), the concentration giving a half-maximal response (EC50) came to 33 nM. Besides, the “Cooperativity (alpha factor)” value in test [2] came out at 7.
